The text below walks through data of patent US20240270748A1 (Merck Patent GmbH, priority 2021, published 2024).

Structures can show the parent of a compound that is named as a salt.

One assay relates to YAP-TEAD interaction. In words: SK-HEP-1 reporter assay (8xTEAD responsive elements driving NanoLuc luciferase). The class given is cell-based. The note with it: Homo sapiens, SK-HEP1, SK-HEP-1 reporter assay; class symbols. As to the method:
To identify inhibitors of YAP-TEAD interaction, 8×TEAD responsive elements driving the NanoLuc® luciferase gene were stably integrated into SK-HEP-1 cells (ECACC #: 91091816).
For the assay, cells were treated in duplicates with the test compounds in a 10-point dose, with the top concentration starting at 30 μM (final concentration in assay). After a 24 hour incubation at 37° C., 95% rH, and 5% CO2, a luciferase substrate/lysis reagent mix (NanoGlo™, Promega) was added to the cells, allowing the quantification of cellular luciferase activity.
Cell Media: The cells were cultured in the following media: MEM, +10% FBS, +1× GlutaMAX, +1 mM Sodium-Pyruvate, +100 μM Non-essential amino acids, +0.1 mg/ml Hygromycin. The media used for the assay was: MEM (w/o Phenol Red), +10% FBS, +1× GlutaMAX, +1 mM Sodium-Pyruvate, +100 μM Non-essential amino acids, +0.5% Pen/Strep
Reagents: The reagents used are listed below:
Cell culture: The cells were examined using an inverted microscope to check for health and cell density. To dissociate adherent cells, the monolayer of cells was washed once with pre-warmed PBS. After removing the PBS, 3 ml pre-warmed Accutase® was added to a F75 flask, dispersed evenly and the flask was allowed to sit in incubator for ˜4-5 minutes.
When a single cell suspension was obtained, 7 ml of prewarmed growth media was added and resuspended with the cells. The cell suspension was transferred to a sterile 15 ml conical centrifuge tube, and spun for 5 min at 300×g, RT. The supernatant was discarded and the pellet was resuspended in 10 ml of pre-warmed growth media.
The total cell count was determined, and 20 μl of the desired cell number was added to each well of a 384 well plate using a Multidrop Combi. The plates were then incubated for 24 hours at 37° C., 95% rH, and 5% C02.
Compound treatment: 24 hours after seeding, the cells were treated with compounds.
A 1:333 dilution of compounds, diluted in DMSO, was made to get a final concentration of 0.3% DMSO per well. To transfer the compounds to the assay plate, […] was shot from Labcyte low dead volume plates to the cell plates containing 20 μl media/well with the ECHO 555 liquid handling system.
After treatment, the cells were fed with 20 μl fresh pre-warmed assay media using a Multidrop combi.
The assay plates were then incubated for another 24 h at 37° C., 95% rH, and 5% CO2.
Luciferase readout: 24 h after treatment, the plates were taken out of the incubator and were allowed to equilibrate to RT. 30 μl of NanoGlo® reagent was added to the plates in the dark. Plates were shaken for 20 min on a Teleshake (˜1500 rpm) in the dark. The luminescence was then measured using an EnVision microplate reader. The IC50 values were generated using Genedata Screener®.
A general note: In a reporter assay the amount or activity of a reporter protein is the signal.
On to `Cn1cc2c3cc(C(N)=O)cnc3n(-c3ccc(C(F)(F)F)cc3)c2n1` [Example C118, 4-methyl-7-[4-(trifluoromethyl)phenyl]-4,5,7,9-tetraazatricyclo[6.4.0.0^2,6]dodeca-1(8),2,5,9,11-pentaene-11-carboxamide], for which the IC50 lay within 0.1 to 10 µM.

Take `C[C@H](NC(=O)c1ccc2c(c1)c1cn(C)nc1n2-c1ccc(C(F)(F)F)cc1)c1ccncc1` [Example C127, 2-methyl-N-[(1S)-1-(pyridin-4-yl)ethyl]-8-[4-(trifluoromethyl)phenyl]-2H,8H-pyrazolo[3,4-b]indole-5-carboxamide]: the IC50 was in the range of 0.1 to 10 µM. Same read-out and setting: for `Cn1cnc2c1c1cc(CO)ccc1n2-c1ccc(C(F)(F)F)cc1` [Example C132, {1-methyl-4-[4-(trifluoromethyl)phenyl]-1H,4H-imidazo[4,5-b]indol-7-yl}methanol] the value was 0.1 to 10 µM. Still for that read-out and setting: the value for `Cn1cc2c3cc(C(=O)NC[C@H](O)C(F)(F)F)ccc3n(-c3ccc(C(F)(F)F)cc3)c2n1` [Example C133, 2-methyl-N-[(2S)-3,3,3-trifluoro-2-hydroxypropyl]-8-[4-(trifluoromethyl)phenyl]-2H,8H-pyrazolo[3,4-b]indole-5-carboxamide] was 0.1 to 10 µM; that for `Cn1cc2c3cc(C(=O)NC[C@@H](O)C(F)(F)F)ccc3n(-c3ccc(C(F)(F)F)cc3)c2n1` [Example C135, 2-methyl-N-[(2R)-3,3,3-trifluoro-2-hydroxypropyl]-8-[4-(trifluoromethyl)phenyl]-2H,8H-pyrazolo[3,4-b]indole-5-carboxamide] was 0.1 to 10 µM; that for `CCN1CCC(NC(=O)c2ccc3c(c2)c2cn(C)nc2n3-c2ccc(C(F)(F)F)cc2)CC1` [Example C136, N-(1-ethylpiperidin-4-yl)-2-methyl-8-[4-(trifluoromethyl)phenyl]-2H,8H-pyrazolo[3,4-b]indole-5-carboxamide trifluoroacetate] was 0.1 to 10 µM. `Cn1cc2c3cc(C(=O)N=S4(=O)CCC5(CCNCC5)C4)ccc3n(-c3ccc(C(F)(F)F)cc3)c2n1` (stereo not shown) [Example C138, 2-methyl-N-{2-oxo-2lambda6-thia-8-azaspiro[4.5]decan-2-ylidene}-8-[4-(trifluoromethyl)phenyl]-2H,8H-pyrazolo[3,4-b]indole-5-carboxamide] came in with an IC50 of 0.1 to 10 µM. Same read-out and setting: for `Cn1cc2c3cc(C(=O)N=S4(=O)CCC(C)(N)CC4)ccc3n(-c3ccc(C(F)(F)F)cc3)c2n1` (stereo not shown) [Example C139, N-(4-amino-4-methyl-1-oxo-1lambda6-thian-1-ylidene)-2-methyl-8-[4-(trifluoromethyl)phenyl]-2H,8H-pyrazolo[3,4-b]indole-5-carboxamide] the value was 0.1 to 10 µM; for `Cn1cc2c3cc(C(=O)NCCOC4CCNC4)ccc3n(-c3ccc(C(F)(F)F)cc3)c2n1` (stereo not shown) [Example C142, 2-methyl-N-[2-(pyrrolidin-3-yloxy)ethyl]-8-[4-(trifluoromethyl)phenyl]-2H,8H-pyrazolo[3,4-b]indole-5-carboxamide], 0.1 to 10 µM. With `C[C@H](NC(=O)c1ccc2c(c1)c1cn(C)nc1n2-c1ccc(C(F)(F)F)cc1)C1CNC1` [Example C144, N-[(1S)-1-(azetidin-3-yl)ethyl]-2-methyl-8-[4-(trifluoromethyl)phenyl]-2H,8H-pyrazolo[3,4-b]indole-5-carboxamidetrifluoroacetate], the IC50 is 0.1 to 10 µM.

Compound `CC(N)CS(C)(=O)=NC(=O)c1ccc2c(c1)c1cn(C)nc1n2-c1ccc(C(F)(F)F)cc1` (stereo not shown) [Example C145, N-[(2-aminopropyl)(methyl)oxo-λ^6-sulfanylidene]-2-methyl-8-[4-(trifluoromethyl)phenyl]-2H,8H-pyrazolo[3,4-b]indole-5-carboxamide] registered an IC50 of 0.1 to 10 µM. On to `COCCS(=O)(CCN)=NC(=O)c1ccc2c(c1)c1cn(C)nc1n2-c1ccc(C(F)(F)F)cc1` (stereo not shown) [Example C146, N-[(2-aminoethyl)(2-methoxyethyl)oxo-λ^6-sulfanylidene]-2-methyl-8-[4-(trifluoromethyl)phenyl]-2H,8H-pyrazolo[3,4-b]indole-5-carboxamide], for which the IC50 lay within 0.1 to 10 µM. For the compound `Cn1cc2c3cc(C(=O)N4CC[C@@H](O)C4)ccc3n(-c3ccc(C(F)(F)F)cn3)c2n1` [Example C152, (3R)-1-{2-methyl-8-[5-(trifluoromethyl)pyridin-2-yl]-2H,8H-pyrazolo[3,4-b]indole-5-carbonyl}pyrrolidin-3-ol], the IC50 is above 10 µM. Still for that read-out and setting: the value for `C[C@H](CO)C(=O)Nc1ccc2c(c1)c1cn(C)nc1n2-c1ccc(C(F)(F)F)cc1` [Example C154, (2R)-3-hydroxy-2-methyl-N-{2-methyl-8-[4-(trifluoromethyl)phenyl]-2H,8H-pyrazolo[3,4-b]indol-5-yl}propanamide] was 0.1 to 10 µM. Same read-out and setting: for `C[C@H](CO)NC(=O)c1ccc2c(c1)c1cn(C)nc1n2-c1ccc(F)cc1` [Example C155, 8-(4-fluorophenyl)-N-[(2R)-1-hydroxypropan-2-yl]-2-methyl-2H,8H-pyrazolo[3,4-b]indole-5-carboxamide] the value was 0.1 to 10 µM; for `Cn1cnc2c1c1cc(C3CC(Br)=NO3)ccc1n2-c1ccc(C(F)(F)F)cc1` (stereo not shown) [Example C158, 3-bromo-5-{1-methyl-4-[4-(trifluoromethyl)phenyl]-1H,4H-imidazo[4,5-b]indol-7-yl}-4,5-dihydro-1,2-oxazole], 0.1 to 10 µM. On to `CC(NC(=O)c1ccc2c(c1)c1cn(C)nc1n2-c1ccc(C(F)(F)F)cc1)c1cccc(NC(=O)OC(C)(C)C)n1` (stereo not shown) [Example C165, tert-butyl N-{6-[1-({2-methyl-8-[4-(trifluoromethyl)phenyl]-2H,8H-pyrazolo[3,4-b]indol-5-yl}formamido)ethyl]pyridin-2-yl}carbamate], for which the IC50 lay within 0.1 to 10 µM. On the same count and under the same terms, the value for `Cn1cc2c3cc(C(=O)N4CC[C@@H](O)C4)ccc3n(-c3ccc(C(F)(F)F)c(F)c3)c2n1` [Example C171, (3R)-1-{8-[3-fluoro-4-(trifluoromethyl)phenyl]-2-methyl-2H,8H-pyrazolo[3,4-b]indole-5-carbonyl}pyrrolidin-3-ol] was 0.1 to 10 µM. The compound `Cn1cc2c3cc(C(=O)N=S4(=O)CC(C#N)C4)ccc3n(-c3ccc(C(F)(F)F)cc3)c2n1` (stereo not shown) [Example C178, N-(3-cyano-1-oxo-1¿6-thietan-1-ylidene)-2-methyl-8-[4-(trifluoromethyl)phenyl]-2H,8H-pyrazolo[3,4-b]indole-5-carboxamide] yielded an IC50 of 0.1 to 10 µM. For the compound `C=Cc1ccc2c(c1)c1c(ncn1C)n2-c1ccc(C(F)(F)F)cc1` [Example C179, 7-ethenyl-1-methyl-4-[4-(trifluoromethyl)phenyl]-1H,4H-imidazo [4,5-b]indole], the IC50 lay within 0.1 to 10 µM. As to `[2H]C1([2H])C(n2c3ccc(C(=O)N[C@H](C)CO)cc3c3cn(C)nc32)C([2H])([2H])C([2H])([2H])C([2H])([2H])C1([2H])[2H]` [Example C197], the IC50 lay within 0.1 to 10 µM.

Staying with this assay, now noted: Homo sapiens, SK-HEP1, SK-HEP-1 reporter assay; n.d. = value not detectable below threshold given in parentheses; ND = not determinable within the entire range.
For the compound `Cn1cc2c3cc(C(=O)N=S4(=O)CCC5(CC4)CC(N)CCO5)ccc3n(-c3ccc(C(F)(F)F)cc3)c2n1` (stereo not shown) [Example C143, N-{4-amino-9-oxo-1-oxa-9lambda6-thiaspiro[5.5]undecan-9-ylidene}-2-methyl-8-[4-(trifluoromethyl)phenyl]-2H,8H-pyrazolo[3,4-b]indole-5-carboxamide], the IC50 was above 3.2 µM.

One may read the IC50 as the concentration at which inhibition is half-maximal.
